The values below come from ChEMBL document CHEMBL3991601, “The target landscape of clinical kinase drugs” (Science, 2017).

The target of assay [1] is T1, Bifunctional phosphoribosylaminoimidazole carboxylase/phosphoribosylaminoimidazole succinocarboxamide synthetase (Homo sapiens, UniProt P22234).
T1 sequence (P22234 whole entry): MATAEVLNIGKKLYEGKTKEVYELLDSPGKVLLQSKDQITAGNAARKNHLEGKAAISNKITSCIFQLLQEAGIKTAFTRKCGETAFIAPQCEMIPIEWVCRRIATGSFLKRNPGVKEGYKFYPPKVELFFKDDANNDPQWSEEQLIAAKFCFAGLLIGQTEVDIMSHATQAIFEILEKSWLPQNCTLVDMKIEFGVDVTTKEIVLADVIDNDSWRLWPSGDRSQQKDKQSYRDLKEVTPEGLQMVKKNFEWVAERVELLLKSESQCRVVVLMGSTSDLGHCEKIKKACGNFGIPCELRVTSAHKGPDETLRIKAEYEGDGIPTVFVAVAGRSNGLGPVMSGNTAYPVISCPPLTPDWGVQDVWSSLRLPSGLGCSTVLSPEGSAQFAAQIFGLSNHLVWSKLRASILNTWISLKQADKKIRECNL

Assay [2] addresses High affinity nerve growth factor receptor (Homo sapiens, UniProt P04629).
The next assay has as its target Activin receptor type-2B (Homo sapiens, UniProt Q13705).
Assay [3] addresses T2, Mitogen-activated protein kinase kinase kinase 5 (Homo sapiens, UniProt Q99683).
T2 sequence (Q99683 whole entry): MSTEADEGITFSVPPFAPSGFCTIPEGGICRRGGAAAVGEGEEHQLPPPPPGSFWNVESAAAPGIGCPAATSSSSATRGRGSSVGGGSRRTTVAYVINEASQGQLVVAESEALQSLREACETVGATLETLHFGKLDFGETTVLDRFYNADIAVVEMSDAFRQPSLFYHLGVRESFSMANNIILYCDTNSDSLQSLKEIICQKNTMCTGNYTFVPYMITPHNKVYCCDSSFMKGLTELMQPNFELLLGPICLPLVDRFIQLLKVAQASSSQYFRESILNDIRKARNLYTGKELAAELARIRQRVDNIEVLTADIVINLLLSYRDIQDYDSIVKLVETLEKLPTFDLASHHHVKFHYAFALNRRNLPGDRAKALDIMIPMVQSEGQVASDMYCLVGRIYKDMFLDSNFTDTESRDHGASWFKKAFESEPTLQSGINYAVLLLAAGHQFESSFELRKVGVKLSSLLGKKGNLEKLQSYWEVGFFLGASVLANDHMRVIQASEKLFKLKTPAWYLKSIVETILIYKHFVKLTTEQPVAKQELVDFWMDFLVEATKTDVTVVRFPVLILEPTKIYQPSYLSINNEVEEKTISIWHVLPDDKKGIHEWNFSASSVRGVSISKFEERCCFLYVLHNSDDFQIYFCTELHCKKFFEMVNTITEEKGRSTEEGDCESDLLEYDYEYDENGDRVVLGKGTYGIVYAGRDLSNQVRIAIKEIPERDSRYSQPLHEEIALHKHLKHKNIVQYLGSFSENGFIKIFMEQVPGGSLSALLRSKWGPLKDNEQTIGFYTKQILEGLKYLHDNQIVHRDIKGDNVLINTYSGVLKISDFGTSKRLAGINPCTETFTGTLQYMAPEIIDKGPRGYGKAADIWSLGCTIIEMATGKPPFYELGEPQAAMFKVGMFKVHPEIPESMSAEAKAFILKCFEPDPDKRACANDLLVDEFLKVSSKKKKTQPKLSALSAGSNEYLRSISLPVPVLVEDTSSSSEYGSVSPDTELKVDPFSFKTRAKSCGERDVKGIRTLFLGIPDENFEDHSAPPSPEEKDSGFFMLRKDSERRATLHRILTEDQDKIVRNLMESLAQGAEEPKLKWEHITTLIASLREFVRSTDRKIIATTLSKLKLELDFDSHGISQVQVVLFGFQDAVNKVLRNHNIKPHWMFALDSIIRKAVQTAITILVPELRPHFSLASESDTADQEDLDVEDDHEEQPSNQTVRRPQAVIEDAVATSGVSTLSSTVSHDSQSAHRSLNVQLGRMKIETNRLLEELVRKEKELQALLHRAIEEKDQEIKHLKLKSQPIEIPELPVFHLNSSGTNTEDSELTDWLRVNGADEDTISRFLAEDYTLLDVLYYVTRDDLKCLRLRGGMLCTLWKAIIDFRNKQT

Structures can show the parent of a compound that is named as a salt. Calls of active or inactive are those of the source. Bounds are passed on as bounds.
Also: in the data inactive means no Kd found up to 30 µM.

Chain of Activin receptor type-2B (Q13705 whole entry): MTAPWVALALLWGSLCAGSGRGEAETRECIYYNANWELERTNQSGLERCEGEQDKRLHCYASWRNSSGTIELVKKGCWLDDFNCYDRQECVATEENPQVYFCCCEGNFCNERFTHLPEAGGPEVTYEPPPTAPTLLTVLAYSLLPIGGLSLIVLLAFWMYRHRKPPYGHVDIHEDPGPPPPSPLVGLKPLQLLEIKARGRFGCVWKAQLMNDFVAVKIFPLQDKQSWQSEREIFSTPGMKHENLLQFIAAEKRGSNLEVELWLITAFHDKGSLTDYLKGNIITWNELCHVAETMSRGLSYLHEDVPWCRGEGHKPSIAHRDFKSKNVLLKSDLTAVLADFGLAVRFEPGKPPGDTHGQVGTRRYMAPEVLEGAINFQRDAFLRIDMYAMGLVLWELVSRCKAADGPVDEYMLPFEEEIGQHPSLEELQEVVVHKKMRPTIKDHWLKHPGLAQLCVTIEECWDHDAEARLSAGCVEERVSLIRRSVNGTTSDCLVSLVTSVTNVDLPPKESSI
Chain of High affinity nerve growth factor receptor (P04629 whole entry): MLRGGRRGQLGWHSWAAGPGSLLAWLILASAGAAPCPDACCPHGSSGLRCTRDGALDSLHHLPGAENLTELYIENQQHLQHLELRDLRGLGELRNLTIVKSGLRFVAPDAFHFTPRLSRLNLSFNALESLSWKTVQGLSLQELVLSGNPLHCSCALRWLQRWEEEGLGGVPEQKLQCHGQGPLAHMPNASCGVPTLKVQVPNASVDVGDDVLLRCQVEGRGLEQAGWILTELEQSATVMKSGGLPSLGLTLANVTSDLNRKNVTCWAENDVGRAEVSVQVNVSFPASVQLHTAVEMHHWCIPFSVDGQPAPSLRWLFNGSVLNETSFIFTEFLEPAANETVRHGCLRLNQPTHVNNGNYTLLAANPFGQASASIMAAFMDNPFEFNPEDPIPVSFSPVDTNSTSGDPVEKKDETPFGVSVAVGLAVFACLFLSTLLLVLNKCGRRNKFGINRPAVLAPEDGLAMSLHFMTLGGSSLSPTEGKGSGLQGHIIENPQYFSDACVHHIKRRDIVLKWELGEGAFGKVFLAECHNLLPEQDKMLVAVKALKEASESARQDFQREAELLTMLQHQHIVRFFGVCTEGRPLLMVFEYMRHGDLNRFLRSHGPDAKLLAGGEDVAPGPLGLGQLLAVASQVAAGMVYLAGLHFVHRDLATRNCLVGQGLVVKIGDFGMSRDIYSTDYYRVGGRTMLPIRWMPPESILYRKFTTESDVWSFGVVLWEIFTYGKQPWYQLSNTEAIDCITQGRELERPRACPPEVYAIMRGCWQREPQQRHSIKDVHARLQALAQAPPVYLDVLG

Regarding `C[C@@H](Oc1cc(C(=O)Nc2ccc(C(=O)N3CCN(C)CC3)cc2)nnc1N)c1c(Cl)ccc(F)c1Cl`, the Kd (in assay [1]; in assay [2]; on Activin receptor type-2B; in assay [3]) was > 30 µM (inactive) in each case.
For `C[C@H]1CNCCCN1S(=O)(=O)c1cccc2cncc(F)c12`, the Kd (in assay [1]; in assay [2]; at Activin receptor type-2B; in assay [3]) was > 30 µM (inactive) throughout.
With `CC(=O)c1cnc2ccc(-c3cc(Cl)c(O)c(Cl)c3)nc2c1N[C@H]1CC[C@H](CN(C)C)CC1`, the Kd was > 30 µM (inactive) in assay [1], > 30 µM (inactive) in assay [2], > 30 µM (inactive) at Activin receptor type-2B and 0.878 µM (active) in assay [3].
With `CCNC(=O)C#Cc1ccc2c(c1)NC(=O)/C2=C(\Nc1ccc(CN(C)C)cc1)c1ccccc1`, the Kd (in assay [1]; on Activin receptor type-2B; in assay [3]) was > 30 µM (inactive) throughout.
In the case of `C=CC(=O)N1CCC[C@H](n2c(=O)n(-c3ccc(Oc4ccccc4)cc3)c3c(N)ncnc32)C1`, the Kd (in assay [1]; in assay [2]; on Activin receptor type-2B; in assay [3]) was > 30 µM (inactive) throughout.
As for `Cc1nc2cc(-c3nn(C(C)C)c4ncnc(N)c34)ccc2o1`, the Kd was > 30 µM (inactive) in assay [1], > 30 µM (inactive) in assay [2], 0.901 µM (active) at Activin receptor type-2B and > 30 µM (inactive) in assay [3].
Turning to `COCc1c(-c2ccc(NC(=O)Nc3cc(C(F)(F)F)ccc3F)c(F)c2)c2c(N)ncnn2c1CN1CCOCC1`, the Kd (in assay [1]; in assay [2]; on Activin receptor type-2B; in assay [3]) was > 30 µM (inactive) each time.
Consider `Nc1ncnc2c1c(-c1cccc(OCc3ccccc3)c1)cn2[C@H]1C[C@@H](CN2CCC2)C1` [AEW-541], for which the Kd (in assay [1]; in assay [2]; on Activin receptor type-2B; in assay [3]) was > 30 µM (inactive) each time.
For the compound `COc1cc(Nc2ncc3c(n2)-c2ccc(Cl)cc2C(c2c(F)cccc2OC)=NC3)ccc1C(=O)O` [ALISERTIB], the Kd (in assay [1]; at Activin receptor type-2B; in assay [3]) was > 30 µM (inactive) in each case.
With `Cc1nc(NC(=O)N2CCC[C@H]2C(N)=O)sc1-c1ccnc(C(C)(C)C(F)(F)F)c1` [ALPELISIB], the Kd in assay [1] and in assay [3] was > 30 µM (inactive) throughout.
Take `Cc1csc(-c2nnc(Nc3ccc(Oc4ncccc4-c4ccnc(N)n4)cc3)c3ccccc23)c1` [AMG-900]: the Kd in assay [1] was > 30 µM (inactive); in assay [2], > 30 µM (inactive); on Activin receptor type-2B it was > 30 µM (inactive); in assay [3], 2.79 µM (active).
`O=C(Nc1c[nH]nc1-c1nc2cc(CN3CCOCC3)ccc2[nH]1)NC1CC1` [AT-9283]: the Kd (in assay [1]; in assay [2]; at Activin receptor type-2B) was > 30 µM (inactive) in each case.
Take `C=CC(=O)Nc1cc2c(Nc3ccc(F)c(Cl)c3)ncnc2cc1C#CC(C)(C)N1CCN(C)CC1` [AV-412 FREE BASE]: the Kd (in assay [1]; in assay [2]; on Activin receptor type-2B; in assay [3]) was > 30 µM (inactive) throughout.
For `CNC(=O)c1ccccc1Sc1ccc2c(/C=C/c3ccccn3)n[nH]c2c1` [AXITINIB], in assay [1], the Kd is > 30 µM (inactive).
For `COc1cc([C@@H]2c3cc4c(cc3[C@H](O)[C@H]3COC(=O)[C@@H]23)OCO4)cc(OC)c1OC` [AXL-1717], the Kd (in assay [1]; in assay [2]; at Activin receptor type-2B; in assay [3]) was > 30 µM (inactive) each time.
In the case of `NC(=O)Nc1cc(-c2cccc(F)c2)sc1C(=O)N[C@H]1CCCNC1` [AZD-7762], the values for the Kd (in assay [1]; at Activin receptor type-2B; in assay [3]) were > 30 µM (inactive), 0.253 µM (active) and > 30 µM (inactive), respectively.
As to `Cc1cc(C(=O)NOCCO)c(Nc2ccc(I)cc2F)n(C)c1=O` [AZD-8330], the Kd (in assay [1]; in assay [2]; on Activin receptor type-2B; in assay [3]) was > 30 µM (inactive) in each case.
In the case of `Cn1cnc2c(F)c(Nc3ccc(Br)cc3F)c(C(=O)NOCCO)cc21` [BINIMETINIB], the Kd (in assay [1]; in assay [2]; on Activin receptor type-2B; in assay [3]) was > 30 µM (inactive) throughout.
Turning to `CCn1c(C(=O)N(C2CC2)C2CC2)cc2c3c(ncn3C)c(Nc3cc(C)n(C)n3)nc21` [BMS-911543], the Kd (in assay [1]; on Activin receptor type-2B; in assay [3]) was > 30 µM (inactive) each time.
Consider `CCS(=O)(=O)N1CCN(c2ccc(Nc3ncc(C(N)=O)c(NC4CC4)n3)cc2)CC1` [Cerdulatinib Hydrochloride], for which the Kd (in assay [1]; in assay [2]; on Activin receptor type-2B) was > 30 µM (inactive) in each case.
On to `CC(C)(C)c1nc(-c2cccc(NS(=O)(=O)c3c(F)cccc3F)c2F)c(-c2ccnc(N)n2)s1` [DABRAFENIB], for which the Kd (in assay [1]; on Activin receptor type-2B) was > 30 µM (inactive) each time.
`Cn1cc(C2=C(c3cn(C4CCN(Cc5ccccn5)CC4)c4ccccc34)C(=O)NC2=O)c2ccccc21` [ENZASTAURIN]: in assay [1], the Kd is > 30 µM (inactive).
For `C[C@@H](Oc1cc(-n2cnc3ccc(CN4CCN(C)CC4)cc32)sc1C(N)=O)c1ccccc1C(F)(F)F` [GSK-461364], the Kd (in assay [1]; on Activin receptor type-2B) was > 30 µM (inactive) in each case.
Take `CCn1cc(-c2ccnc3[nH]c(-c4cccc(CN(C)C)c4)cc23)c(-c2ccc(NC(=O)N(C)C)cc2)n1` [GSK-1070916]: the Kd in assay [1] is > 30 µM (inactive); in assay [2], 5.95 µM (active); in assay [3] it was > 30 µM (inactive).
As for `Cc1[nH]c(/C=C2\C(=O)Nc3ccccc32)c(C)c1CCC(=O)O` [ORANTINIB], the Kd (in assay [1]; on Activin receptor type-2B; in assay [3]) was > 30 µM (inactive) throughout.
Regarding `NC(=O)c1c(OCc2c(F)cc(Br)cc2F)nsc1NC(=O)NCCCCN1CCCC1` [OSI-632], the Kd (in assay [1]; on Activin receptor type-2B; in assay [3]) was > 30 µM (inactive) in each case.
On to `CC(=O)NCC(=O)N1[C@@H]2CC[C@H]1c1ccc(Nc3ncc(C(F)(F)F)c(NC4CCC4)n3)cc12` [PF-03814735], for which the Kd (in assay [1]; on Activin receptor type-2B) was > 30 µM (inactive) each time.
For the compound `CNC(=O)c1cc(Oc2ccc(NC(=O)Nc3cc(C(C)(C)C)nn3-c3ccc4ncccc4c3)c(F)c2)ccn1` [REBASTINIB], the Kd (in assay [1]; at Activin receptor type-2B; in assay [3]) was > 30 µM (inactive) in each case.
With `O=C(NOCCO)c1cc(CN2OCCCC2=O)c(F)c(F)c1Nc1ccc(I)cc1F` [RO-4987655], the Kd in assay [1] is > 30 µM (inactive).
Same read-out and setting: as for `N#CC[C@H](C1CCCC1)n1cc(-c2ncnc3[nH]ccc23)cn1` [RUXOLITINIB], the figure is > 30 µM (inactive).
In the case of `CN1C/C=C/CCOc2cccc(c2)-c2ccnc(n2)Nc2cccc(c2)C1` [ZOTIRACICLIB], the Kd (in assay [1]; at Activin receptor type-2B; in assay [3]) was > 30 µM (inactive) throughout.
